# Results published in US20250114311A1, “IONIZABLE CATIONIC COMPOUNDS FOR MESSENGER RNA DELIVERY” (SEQIRUS INC., priority 2021, published 2025).
# Legend:
# Balb/c mice = assay: Mouse immunogenicity study, antigen-specific T cells by intracellular cytokine staining; type: in vivo; details: prime-boost, LNPs with saRNA expressing H5 and N1, peptide stimulation, FIG. 6
# [1] = TNS fluorescence apparent pKa protocol for saRNA-LNP; type: physicochemical; details: saRNA-LNPs, TNS 6 μM, to 9.5, 25° C., EC50 of sigmoidal curve
# Protocol: In a black 96-well plate, solutions of saRNA-LNP (final assay concentration 2 μg/mL total RNA) in a series of buffers ranging from pH 4 to 9.5 were prepared. Buffers between pH4 to 7.6 were prepared from disodium phosphate and citric acid. Buffers from 7.8 to 9.5 were prepared by titrating tris buffer with 10 N sodium hydroxide. To each well was added 6-(p-Toluidino)-2-naphthalenesulfonic acid sodium salt (TNS) in water to a final assay concentration of 6 μM. The fluorescence was read on a plate reader at 25° C. with an excitation setting of 321 nm and an emission setting of 445 nm. The intensity values were plotted as a function of pH using GraphPad Prism and were fit with a sigmoidal dose response curve. The apparent pKa was determined as the EC50 of this curve where half of the ionizable amines are expected to be protonated.
# BHK-V cells = assay: In vitro potency of saRNA-LNPs (antigen-expressing cells, flow cytometry); type: cell-based; details: FIG. 3
# Protocol: The ability of the saRNA-LNPs to transfect cultured cells was characterized using an in vitro assay based on the percentage of cells expressing the antigen of interest. Specifically, 1 million BHK-V cells were co-incubated with saRNA-LNP of varying concentration (highest 50 ng per well, lowest 0.39 ng per well) in 0.3 mL of media for 17-19 hours at 37° C. with 5% CO2. Subsequently, the cells were scraped from the dish to form a single-cell suspension, fixed and permeabilized (BD Cytofix/Perm kit), and then stained with fluorophore-labeled antigen-specific antibodies against H5 and N1 (for saRNA expressing both H5 and N1). Luciferase expression was not measured for saRNA expressing both H5 and luciferase. The percentage of single or double antigen positive cells was quantified using a BD Accuri flow cytometer. […] The slope of that line multiplied by −100,000 was reported as the LNP potency. Alternatively, a similar assay was performed in a 96-well using BHK-21 cells and analysed using a Cytation 5 Cell Imaging Multimode Reader (Agilent). The results of this assay were analysed in the same way as described for the flow cytometry assay.
smiles,measurement,setting,value
CCCCCCCCCC(CCCCCCCCC(=O)OCC(CCCC)CCCCCC)OC(=O)CCCN(C)C (stereo not shown) [Compound 11],activated antigen-specific CD8 T cells,Balb/c mice,measurable levels
same,pKa,[1],6.25
same,"LNP potency (in vitro), comparison of the two LNPs",BHK-V cells; both saRNA constructs examined,trended higher in potency
same,ability to transfect BHK-V cells in vitro,"BHK-V cells; saRNA-LNP, 17-19 hours",able to transfect
